Results reported in patent US4728509A, “Aqueous liquid preparation” (Takeda Chemical Industries, Ltd., priority 1985, dated 1988).
Like-named read-outs stand apart in the source and are kept apart here.

Assay: Solubility test of compound (a) with and without solubilizers (Experimental Example 1; HPLC of filtrate)
Protocol: Solubility tests of the compound (a) (2-amino-7-isopropyl-5-oxo-5H-[1]-benzopyrano[2,3-b]pyridine-3-carboxylic acid) employing the solubilizers of this invention and, for comparison, employing various conventional solubilizers were performed.
The solubility was measured by the following manner:
An excess amount of the compound (a) was added to a given volume of a phosphate buffer, the mixture was sufficiently stirred, then the pH was adjusted to a given level, the mixture was allowed to stand at room temperature (25° C.) for 48 hours, the resultant was subjected to filtration with 0.45μ membrane filter, followed by measuring the concentration of the compound (a) in the filtrate by means of high performance liquid chromatography.

[1] = in words, substance used as solubilizer

Compound	effect for improving the solubility of compound (a)	effect for improving the solubility of compound (a) [1]
polyvinylpyrrolidone	excellent effect	
Polyoxyethylene sorbitan monooleate [Tween 80, reference compound]	less effective	
O=C([O-])c1ccccc1O.[Na+] [sodium salicylate, reference compound]		less effective
OC[C@H]1O[C@@H]2O[C@H]3[C@H](O)[C@@H](O)[C@@H](O[C@H]4[C@H](O)[C@@H](O)[C@@H](O[C@H]5[C@H](O)[C@@H](O)[C@@H](O[C@H]6[C@H](O)[C@@H](O)[C@@H](O[C@H]7[C@H](O)[C@@H](O)[C@@H](O[C@H]8[C@H](O)[C@@H](O)[C@@H](O[C@H]1[C@H](O)[C@H]2O)O[C@@H]8CO)O[C@@H]7CO)O[C@@H]6CO)O[C@@H]5CO)O[C@@H]4CO)O[C@@H]3CO [β-cyclodextrin]	excellent effect	
NNC(=O)c1ccncc1 [isoniazid, reference compound]	some improvement	
NC(N)=O [urea, reference compound]		less effective
